pKi: −log10 of the molar value.
Target: T1, Alpha-1A adrenergic receptor (Homo sapiens, UniProt P35348)
T1 sequence (P35348 whole entry): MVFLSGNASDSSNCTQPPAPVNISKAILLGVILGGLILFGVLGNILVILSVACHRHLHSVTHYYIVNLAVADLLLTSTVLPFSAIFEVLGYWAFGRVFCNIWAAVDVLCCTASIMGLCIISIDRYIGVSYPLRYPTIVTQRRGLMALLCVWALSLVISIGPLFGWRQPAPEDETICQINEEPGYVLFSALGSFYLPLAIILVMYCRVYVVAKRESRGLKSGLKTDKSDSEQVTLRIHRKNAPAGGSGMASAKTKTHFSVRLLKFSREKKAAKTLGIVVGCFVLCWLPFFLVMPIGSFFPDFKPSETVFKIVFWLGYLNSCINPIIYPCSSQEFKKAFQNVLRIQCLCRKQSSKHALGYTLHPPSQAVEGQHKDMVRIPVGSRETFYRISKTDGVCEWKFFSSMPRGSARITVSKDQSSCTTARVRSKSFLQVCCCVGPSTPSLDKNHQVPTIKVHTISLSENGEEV
Test: Binding affinity to Homo sapiens (human) alpha1A adrenergic receptor

CCC1=C(C(N)=O)C(c2ccc([N+](=O)[O-])cc2)C(C(=O)NCCCN2CCC(c3ccccc3)(c3ccccc3)CC2)=C(CC)N1 (stereo unspecified)
pKi: 8.96

From BindingDB's records for doi:10.1007/s00044-004-0120-9 (n/a, 2004)
